By IC50 is commonly meant the concentration needed to halve the response being measured. In general, bioavailability refers to dose-corrected exposure relative to a reference, in per cent.

Structures are written as SMILES. Marks after values point to notes of the source that are not given here.

This is an account of results in patent publication US20190119282A1, “IMIDAZOPYRIDAZINES USEFUL AS INHIBITORS OF THE PAR-2 SIGNALING PATHWAY” (Vertex Pharmaceuticals Incorporated, priority 2013, published 2019).

For series [1], the system named is carrageenan-induced paw edema. Put plainly: Rat carrageenan-induced paw edema model. The format is in vivo, Sprague Dawley rats. The conditions noted are these: given before carrageenan challenge. The protocol:
Male Sprague Dawley rats and BALB/c mice were housed in groups in a temperature controlled room and were acclimatized in the animal facility for at least three days prior to use. Experiments were performed during the light phase of the cycle. Animals have food and water ad libitum.
Example 63: Rat Carrageenan-Induced Paw Edema Model
Peripheral inflammation was induced by intra-plantar administration of 100 ul of a 1% w/volume (in saline) carrageenan solution under isoflurane anesthesia. The degree of swelling was assessed using the plethysmometer at 2-3-4-5-6 h after carrageenan injection. Test compound or vehicle (0.5% MC/0.1% SDS) was systemically administered at the indicated doses in a volume of 5 mL/kg either I-3 hour before carrageenan challenge (Table 9) or 2 hours post carrageenan challenge (Table 10).
Data are expressed as the mean % effect. Statistical significance was assessed using t-test for comparison between naive and inflamed rats, and one-way ANOVA followed by post-hoc comparison test for overall drug effectiveness. A difference between groups is considered significant with a p value of <0.05. *, p<0.05; **, p<0.01; ***, p<0.001 vs. vehicle.
(The carrageenan paw model is a standard test of acute inflammation.)

The test system of series [2] is Thrombin-stimulated Ca2+ response in HT-29 cells. Put plainly: Ca FLIPR TETRA assay, ANTAGONIST mode, stimulation with 1 U/mL Thrombin. The format is cell-based, human. The conditions noted are these: Homo sapiens, HT-29 cells. An outline of the steps: (§1)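 Inhibition of activator-evoked Ca2+ flux was recorded on FLIPR Tetra in HT-29 cells after 30 min compound exposure at r.t. A prior read checked whether compounds alone triggered Ca2+ release.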

Series [3] has as its target T1, PAR2 (HT-29 cells, SLIGKV activation) (Homo sapiens, UniProt P55085).
T1 construct: host or cells: HT-29 cells
T1 sequence (P55085 26-397): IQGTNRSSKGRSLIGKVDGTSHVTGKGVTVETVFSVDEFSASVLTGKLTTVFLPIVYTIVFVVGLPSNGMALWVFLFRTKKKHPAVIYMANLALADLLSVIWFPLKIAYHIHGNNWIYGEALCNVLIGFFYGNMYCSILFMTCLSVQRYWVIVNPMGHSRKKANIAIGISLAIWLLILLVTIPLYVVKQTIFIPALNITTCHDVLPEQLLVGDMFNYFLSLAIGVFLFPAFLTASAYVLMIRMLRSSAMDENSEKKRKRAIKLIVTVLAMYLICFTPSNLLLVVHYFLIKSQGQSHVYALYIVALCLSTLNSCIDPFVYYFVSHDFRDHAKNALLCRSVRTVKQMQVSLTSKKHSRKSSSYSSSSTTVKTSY
Put plainly: Ca FLIPR TETRA assay, ANTAGONIST mode, stimulation with 8 μM SLIGKV. The format is cell-based. The conditions noted are these: HT-29 cells. An outline of the steps:
as §1

The target of series [4] is T2, PAR2 (HT-29 cells, trypsin activation) (Homo sapiens, UniProt P55085).
T2 construct: host or cells: HT-29 cells
T2 sequence (P55085 26-397): T1 sequence (P55085 26-397)
Nature of the series: Ca FLIPR TETRA assay, ANTAGONIST mode, stimulation with 3.1 U/mL trypsin. The format is cell-based. The conditions noted are these: HT-29 cells. Summed up: as §1

Series [5] concerns UTP-stimulated Ca2+ response in HT-29 cells. Put plainly: Ca FLIPR TETRA assay, ANTAGONIST mode, stimulation with 0.6 μM UTP. The format is cell-based, human. The conditions noted are these: Homo sapiens, HT-29 cells. An outline of the steps:
as §1

The nature of series [6]: In vivo rat pharmacokinetics (intravenous and oral). The conditions noted are these: plasma; for clearance: intravenous 0.5 to 1 mg/kg, read-out: Clp; for Vd: intravenous, read-out: Vss; for bioavailability: oral by gavage; for half-life: read-out: T ½ (converted). The procedure:
Example 61: Protocol for Testing PAR2 Compounds In Vivo Rat Pharmacokinetics Experiments
Compounds delivered by intravenous route were formulated using a solution formulation consisting of 5% N-methylpyrrolidone 10% Vitamin E-TPGS and 85% water (v/v/) or a solution formulation consisting of 25% N-methylpyrrolidone 35% polyethylene glycol 400 and 40% water (v/v/). Intravenous formulations were administered by a bolus injection (over approximately 10 seconds) using a hypodermic needle attaches to a syringe (tail vein). The dose volume was varied from 1 to 2 mL/kg and the dose was varied from 0.5 to 1 mg/kg. Compounds delivered orally were formulated as a solution formulation consisting of 5% N-methylpyrrolidone 10% Vitamin E-TPGS and 85% water (v/v/) or as fine suspension using a cellulose derivative suspending agent with or without the addition of a wetting agent/surfactant. Milling of large particles was performed as needed to reduce particle size using focused electroacoustic milling, homogenization or low energy media milling. A spray-dried solid dispersion was prepared for key compounds using 1:1 combination with cellulose derivatives. Test compounds were administered orally by gavage using a gavage plastic needle attached to a syringe. The dose volume was varied from 5 to 10 mL/kg and the dose was varied from 1 to 600 mg/kg.
Rats were bled by venipuncture (jugular vein) and the samples were collected into tubes containing K3EDTA. The tubes were placed on wet ice until processed. The samples were centrifuged for approximately 10 minutes (at approximately 4° C.) within approximately 30 minutes of collection to prepare plasma or diluted in citrate buffer (1:3) and stored frozen (approximately −30° C.). Thawed plasma or whole blood samples were extracted by protein precipitation using an organic solvent followed by centrifugation. The supernatants were separated by high-performance liquid chromatography coupled to mass spectrometry detection. A calibration curve was prepared using reference standard compounds spiked into either blank plasma or whole blood matrices and extracted similarly to unknown samples. Pharmacokinetic parameters were calculated using non-compartmental analysis.

Setting [7] is: antagonist mode, stimulation with 1 U/mL Thrombin.
Where [8] appears, read: antagonist mode, stimulation with 8 μM SLIGKV.
Where [9] appears, read: antagonist mode, stimulation with 3.1 U/mL trypsin.
[10] abbreviates: antagonist mode, stimulation with 0.6 μM UTP.

In the case of `CC(C)c1cc(-c2ccc(F)cc2)nn2cc(C(=O)N3CCN(C(=O)C4(O)CCOCC4)CC3(C)C)nc12` [Compound I-27, [6-(4-fluorophenyl)-8-isopropyl-imidazo[1,2-b]pyridazin-2-yl]-[4-(4-hydroxytetrahydropyran-4-carbonyl)-2,2-dimethyl-piperazin-1-yl]methanone], the “% inhibition of carrageenan induced paw edema” value (from here on “% inhibition”) was 16% in series [1] (dose 3 mg/kg); 25* % in series [1] (dose 6 mg/kg); 30% in series [1] (dose 10 mg/kg); 33** % in series [1] (dose 20 mg/kg); 31* % in series [1] (dose 30 mg/kg); 30** % in series [1] (dose 60 mg/kg). The IC50 in series [2] (stimulation with 1 U/mL Thrombin) was 35000 nM; in series [3] (stimulation with 8 μM SLIGKV), 59 nM; in series [4] (stimulation with 3.1 U/mL trypsin) it was 250 nM; in series [5] (stimulation with 0.6 μM UTP), 42000 nM.
Turning to `C[C@@H]1C[C@H](c2cc(-c3ccc(F)cc3)nn3cc(C(=O)N4CCN(C(=O)[C@H]5C[C@](O)(C(F)(F)F)C5)CC4(C)C)nc23)C[C@H](C)O1` [Compound I-213], in series [1] (dose 7 mg/kg), the “% inhibition” value is reported as 36* %. In addition, the half-inhibitory concentration (IC50) was more than 1000 nM in series [2] (setting [7]), 3.5 nM in series [3] (setting [8]), 5.4 nM in series [4] (setting [9]) and more than 1000 nM in series [5] (setting [10]).
On to `CC(C)(C)c1cc(-c2ccc(F)cc2)nn2cc(C(=O)N3CCN(C(=O)c4nc[nH]n4)CC3(C)C)nc12` [Compound I-227], for which the results for the “% inhibition” value in series [1] (dose 0.3 mg/kg) and in series [1] (dose 10 mg/kg) were 35* % and 64** %, respectively. Moreover, the IC50 stood at 570 nM in series [2] (setting [7]), 0.7 nM in series [3] (setting [8]), 1.6 nM in series [4] (setting [9]) and 420 nM in series [5] (setting [10]).
Regarding `CC(C)(C)c1cc(-c2ccc(F)cc2)nn2cc(C(=O)N3CCN(C(=O)c4cn[nH]c4)CC3(C)C)nc12` [Compound I-228], in series [1] (dose 10 mg/kg), the “% inhibition” value is on record as 48** %. The IC50 in series [2] (setting [7]) was 590 nM; in series [3] (setting [8]), 0.6 nM; in series [4] (setting [9]) it was 0.8 nM; in series [5] (setting [10]) it was 590 nM.
Regarding `CC(C)c1cc(-c2ccc(C(F)(F)F)cc2)nn2cc(C(=O)N3CCNC(=O)C3(C)C)nc12` [Compound I-241], the “% inhibition” value in series [1] (dose 7 mg/kg) was 17** %. The concentration for half-maximal inhibition (IC50) in series [2] (setting [7]) is more than 1000 nM; in series [3] (setting [8]) it was 1.7 nM; in series [4] (setting [9]), 2 nM; in series [5] (setting [10]) it was more than 1000 nM.
In the case of `Cn1nnc(N2CCN(C(=O)c3cn4nc(-c5ccc(F)cc5)cc(C(C)(C)C)c4n3)C(C)(C)C2=O)n1` [Compound I-249], the “% inhibition” value was 49*** % in series [1] (dose 10 mg/kg) and 26* % in series [1] (dose 30 mg/kg). Besides, the concentration for half-maximal inhibition (IC50) in series [2] (setting [7]) is more than 1000 nM; in series [3] (setting [8]), 0.6 nM; in series [4] (setting [9]), 0.7 nM; in series [5] (setting [10]) it was more than 1000 nM.
For the compound `Cc1nnc(C(=O)N2CCN(C(=O)c3cn4nc(-c5ccc(F)cc5)cc(C(C)(C)C)c4n3)C(C)(C)C2)o1` [Compound I-288], the “% inhibition” value in series [1] (dose 10 mg/kg) is reported as 48*** %. In addition, the IC50 in series [2] (setting [7]) is 770 nM; in series [3] (setting [8]), 1.2 nM; in series [4] (setting [9]), 1.8 nM; in series [5] (setting [10]), more than 1000 nM.
In the case of `Cc1cc(C(=O)N2CCN(C(=O)c3cn4nc(-c5ccc(F)cc5)cc(C(C)(C)C)c4n3)C(C)(C)C2)[nH]n1` [Compound I-291], the “% inhibition” value in series [1] (dose 5 mg/kg) is 37** %. The IC50 in series [2] (setting [7]) was found to be 750 nM; in series [3] (setting [8]), 0.2 nM; in series [4] (setting [9]), 0.3 nM; in series [5] (setting [10]) it was 670 nM.
For the compound `CC(C)(C)c1cc(-c2ccc(F)cc2)nn2cc(C(=O)N3CCN(c4cn[nH]c4)C(=O)C3(C)C)nc12` [Compound I-310], the “% inhibition” value in series [1] (dose 5 mg/kg) was 25** %. The IC50 in series [2] (setting [7]) was more than 1000 nM; in series [3] (setting [8]) it was 0.6 nM; in series [4] (setting [9]), 1 nM; in series [5] (setting [10]), 880 nM.
For `CC(C)(C)c1cc(-c2ccc(C(F)(F)F)cc2)nn2cc(C(=O)N3CCN(c4cn[nH]c4)C(=O)C3(C)C)nc12` [Compound I-366], the “% inhibition” value in series [1] (dose 20 mg/kg) is recorded as 43** %. Also, the IC50 in series [2] (setting [7]) is more than 1000 nM; in series [3] (setting [8]), 2.2 nM; in series [4] (setting [9]), 2.5 nM; in series [5] (setting [10]), more than 1000 nM.
Consider `Cc1cc(-c2cc(C(C)(C)C)c3nc(C(=O)N4CCN(c5cn[nH]c5)C(=O)C4(C)C)cn3n2)ccc1F` [Compound I-417], for which, in series [1] (dose 20 mg/kg), the “% inhibition” value is given as 32** %. The IC50 in series [2] (setting [7]) is more than 1000 nM; in series [3] (setting [8]) it was 2.5 nM; in series [4] (setting [9]), 3.2 nM; in series [5] (setting [10]), more than 1000 nM.
Consider `CC(C)(C)c1cc(C2CCC(F)(F)CC2)nn2cc(C(=O)N3CCN(C(=O)[C@H]4C[C@@](C)(O)C4)CC3(C)C)nc12` [Compound I-452, [8-tert-butyl-6-(4,4-difluorocyclohexyl)imidazo[1,2-b]pyridazin-2-yl]-[4-(3-hydroxy-3-methyl-cyclobutanecarbonyl)-2,2-dimethyl-piperazin-1-yl]methanone], for which, in series [6], the clearance amounted to 7.24 mL/min/kg, the Vd stood at 1.96 L/kg, the bioavailability turned out to be 67% and the half-life is 3.62 h. In series [2] (setting [7]), the half-maximal inhibitory concentration (IC50) was 7850 nM. Further, the IC50 in series [3] (setting [8]) worked out at 3.3 nM. The IC50 in series [4] (setting [9]) is 6.2 nM. Besides, the IC50 in series [5] (setting [10]) was 11600 nM.
In the case of `CC(C)(C)c1cc(-c2ccc(F)cc2)nn2cc(C(=O)N3CCN(C(=O)[C@H]4CC[C@@](C)(C(=O)O)CC4)CC3(C)C)nc12` [Compound I-563, (1S,4S)-4-(4-(8-(tert-butyl)-6-(4-fluorophenyl)imidazo[1,2-b]pyridazine-2-carbonyl)-3,3-dimethylpiperazine-1-carbonyl)-1-methylcyclohexane-1-carboxylic acid], in series [6], the clearance was 61.7 mL/min/kg, the Vd came to 1.19 L/kg, the bioavailability is 15% and the half-life was 0.413 h. Further, the half-maximal inhibitory concentration (IC50) in series [2] (antagonist mode, 1 U/mL Thrombin) is more than 1000 nM. Further, in series [3] (antagonist mode, 8 μM SLIGKV), the IC50 amounted to 0.3 nM. Besides, the IC50 in series [4] (antagonist mode, 3.1 U/mL trypsin) was found to be 0.4 nM. Moreover, the IC50 in series [5] (antagonist mode, 0.6 μM UTP) was more than 1000 nM.
